Results reported in patent US5434165A, “Nootropic agents, compositions of, and method of use thereof” (Sanawa Kagaku Kenkyusho Company, Ltd., priority 1991, dated 1995).
pIC50: −log10 of the molar value. Like-named read-outs stand apart in the source and are kept apart here.

Experiments:
[1] = molecular target: T1, 3H-Pirenzepine bonding to rat brain homogenate (Rattus norvegicus, UniProt P08482); assay: 3H-Pirenzepine bonding inhibition test, rat brain homogenate (Test Example 2); format: binding, SD male rat
T1 construct: to obtain a rat brain homogenate for testing; from tissue; host or cells: brain without cerebellum, SD male rat (homogenate, 1000×g supernatant)
T1 sequence (P08482 1-460): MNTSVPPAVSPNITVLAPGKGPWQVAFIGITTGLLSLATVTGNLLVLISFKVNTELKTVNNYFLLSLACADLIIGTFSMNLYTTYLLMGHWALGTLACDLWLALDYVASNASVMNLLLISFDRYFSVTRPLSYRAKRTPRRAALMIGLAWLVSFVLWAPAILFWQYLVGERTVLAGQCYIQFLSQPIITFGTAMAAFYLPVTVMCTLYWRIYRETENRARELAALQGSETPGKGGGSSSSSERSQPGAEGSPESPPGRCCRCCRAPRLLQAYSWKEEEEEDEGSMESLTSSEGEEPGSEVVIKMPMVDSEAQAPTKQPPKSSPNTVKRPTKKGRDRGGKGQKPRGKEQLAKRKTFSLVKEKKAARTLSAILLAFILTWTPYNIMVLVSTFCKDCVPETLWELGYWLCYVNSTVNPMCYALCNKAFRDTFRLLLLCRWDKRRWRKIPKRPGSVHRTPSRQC
Procedure: A rat brain homogenate was prepared according to the method of Yamamura and Synder (Proc. Nat. Acad. Sci. USA, Vol. 71, pp. 1725-1729 (1974)).
An SD male rat was sacrificed by decapitation, and the brain excised. After the cerebellum was removed, 0.32 M sucrose was added thereto in an amount 10 times the weight of the brain under ice cooling, followed by homogenizing in a Potter-Elvehjem glass homogenizer. The resulting homogenate was centrifuged at 1000×g for 10 minutes, the precipitate removed, and the supernatant further homogenized with a Polytron (manufactured by KINEMATICA) to obtain a rat brain homogenate for testing.
The method of Flynn and Mash (J. Pharm. Exp. Therm., Vol. 250, pp. 573-581 (1989)) was followed.
A mixture consisting of 0.035 ml of the above prepared rat brain homogenate (protein content: 0.6 mg), 1 ml of a 50 mM phosphoric acid buffer (pH 7.4) containing 2.0 nM ^3 H-pirenzepine, and 1 ml of a test compound dissolved in the same buffer was allowed to react at room temperature for 60 minutes. To the reaction mixture was added 3.0 ml of the same buffer as used above as cooled with ice, and the mixture was filtered through Whatman GF/B filter paper having been previously impregnated with a 0.1% polyethyleneimine solution for 60 minutes. The filter cake was washed twice with 3.0 ml of the same buffer, the filter paper taken out, an emulsion scintillator added, and the scintillation measured with a liquid scintillation counter to obtain a 50% inhibitory concentration (IC50) of the test compound on ^3 H-pirenzepine bonding to the rat brain homogenate.

[2] = system: scopolamine-induced inhibition of memory retention; assay: Passive avoidance learning test, scopolamine-induced memory retention defect (Test Example 1); format: in vivo, mice; settings: 5 min after scopolamine 0.25 mg/kg i.p., remembrance test after 24 h
Procedure: A passive avoidance learning test using mice was conducted to examine whether scopolamine-induced inhibition of memory retention can be improved by the compound of the present invention.
A training box composed of a light room and a dark room having the same structure was used. The dark room is designed so that a foot shock is given to a test animal via a grid of the floor. An opening is provided on the partitioning wall of the two rooms to let animals in and out freely.
Scopolamine hydrobromide dissolved in physiological saline was intraperitoneally administered to a mouse at a dose of 0.25 mg/kg.
Five minutes after the scopolamine administration, a test compound was intraperitoneally administered to the mouse at a dose shown in Table 1 below (test group).
The animal was put in the light room. Immediately after the animal moved into the dark room, a foot shock was given until the animal returned to the light room.
After 24 hours from the training, the animal was again put in the light room, and the time required for the animal's moving to the dark room was measured up to 300 seconds.
The data from the remembrance test were analyzed to obtain a percent prolongation of the memory retention time of the test group based on that of the control group having received no test compound.

male mouse = assay: Acute Toxicity Test (Test Example 3); format: in vivo; settings: 100 mg/kg i.p., 5-week-old male mouse
Procedure: The compound of Example 11, suspended in 5% gum arabic, was intraperitoneally achninistered to a 5-week-old […] male mouse. General manifestation of toxicity was observed over 60 minutes after the administration, and the animal's death was observed up to 24 hours from the administration.

[3] = 2.0 nM 3H-pirenzepine, pH 7.4, room temperature, 60 min, read-out: IC50 (50% inhibitory concentration on 3H-pirenzepine bonding)

Row | Compound | pIC50 [1, 3] | Percent Prolongation (of memory retention time vs control) ([2]; dose 1000 μg/kg i.p.) | pIC50 [1] | other results
1 | O=[N+]([O-])c1c(NCC23CCCN2CCC3)cnc2ccccc12 [Example 6, 3-(1-Azabicyclo[3.3.0]octan-5-yl)methylamino-4-nitroquinoline] | 5.92 | 55.1% |  | 
2 | O=[N+]([O-])c1ccc(NCC23CCCN2CCC3)cc1 [Example 10, 1-(1-Azabicyclo[3.3.0]octan-5-yl)methylamino-4-nitrobenzene] |  | 26.5% |  | 
3 | O=[N+]([O-])c1ccc(NCC23CCCN2CCC3)c2ccccc12 [Example 11, 1-(1-Azabicyclo[3.3.0]octan-5-yl)methylamino-4-nitronaphthalene] |  | 152.6% | 6.05 | general manifestation of toxicity (male mouse; observed over 60 minutes): neither general manifestation of toxicity nor death was observed; death (male mouse; observed up to 24 hours): neither general manifestation of toxicity nor death was observed; Percent Prolongation (of memory retention time vs control) ([2]; dose 1 μg/kg i.p.): 30.9%; Percent Prolongation (of memory retention time vs control) ([2]; dose 10 μg/kg i.p.): 91.7%; Percent Prolongation (of memory retention time vs control) ([2]; dose 100 μg/kg i.p.): 120.9%
4 | CC(C)N(CCNc1ccc([N+](=O)[O-])c2ccccc12)C(C)C [Example 14, 1-(2-Diisopropylaminoethyl)amino-4-nitronaphthalene] | 6.05 |  |  | 
5 | CN(CC12CCCN1CCC2)c1ccc([N+](=O)[O-])c2ccccc12 [Example 15, 1[N-(1-Azabicyclo[3.3.0]octan-5-yl)methyl-N-methylamino]-4-nitronaphthalene] |  |  | 7.40 | Percent Prolongation (of memory retention time vs control) ([2]; dose 0.01 μg/kg i.p.): 111.6%; Percent Prolongation (of memory retention time vs control) ([2]; dose 0.1 μg/kg i.p.): 68.8%; Percent Prolongation (of memory retention time vs control) ([2]; dose 1 μg/kg i.p.): 85.2%
6 | O=[N+]([O-])c1cccc2c(NCC34CCCN3CCC4)cccc12 [Example 17, 1-(1-Azabicyclo[3.3.0]octan-5-yl)methylamino-5-nitronaphthalene] |  |  | 6.10 | 
7 | CN(CC12CCCN1CCC2)c1c([N+](=O)[O-])ccc2ccccc12 [Example 18, 1-[N-(1-Azabicyclo[3.3.0]octan-5-yl)methyl-N-methylamino]-2-nitronaphthalen] | 6.36 |  |  | Percent Prolongation (of memory retention time vs control) ([2]; dose 0.01 μg/kg i.p.): 117.9%; Percent Prolongation (of memory retention time vs control) ([2]; dose 0.1 μg/kg i.p.): 115.9%
8 | O=[N+]([O-])c1c2ccccc2c(NCC23CCCN2CCC3)c2ccccc12 [Example 19, 9-(1-Azabicyclo[3.3.0]octan-5-yl)methylamino-10-nitroanthracene] | 5.85 |  |  | 
9 | Nc1c2c(nc3ccccc13)CCCC2 [THA, 1,2,3,4-tetrahydro-9-aminoacridine, reference compound] |  | 74.8% |  | Percent Prolongation (of memory retention time vs control) ([2]; dose 100 μg/kg i.p.): 24.4%
